Laboratory results: patent publication US20060276464A1, “Diarylsulfone sulfonamides and use thereof” (Wyeth, priority 2005, published 2006)
Where two headings read alike, the source gives them in different places.

Key:
[1] = target: T1, SFRP-1 (Homo sapiens, UniProt Q8N474); test: Fluorescence polarization binding assay (competitive displacement of a probe compound from SFRP-1); settings: fluorescence anisotropy, 45 nM SFRP-1, 20 nM probe;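 further: test compound competes with a fluorescent probe held by SFRP-1, seen as a drop in probe anisotropy after incubation in darkness, with anisotropy as function of rising compound dose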
T1 sequence (Q8N474 32-314): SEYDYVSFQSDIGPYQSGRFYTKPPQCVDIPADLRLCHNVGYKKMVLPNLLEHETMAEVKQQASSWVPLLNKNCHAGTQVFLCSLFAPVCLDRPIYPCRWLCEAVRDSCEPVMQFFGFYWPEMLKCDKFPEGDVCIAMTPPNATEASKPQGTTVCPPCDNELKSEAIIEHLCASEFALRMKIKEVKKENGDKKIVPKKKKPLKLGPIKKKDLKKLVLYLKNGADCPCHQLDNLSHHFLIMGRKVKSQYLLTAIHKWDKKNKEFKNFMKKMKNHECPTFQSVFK

[2] = target: T1, SFRP-1; test: Cell-based assay for in vitro measurement of SFRP-1/SARP2 antagonist activity (U2OS cells co-transfected with 16x TCF-tk-Luciferase reporter, Wnt and hSFRP-1); settings: for fold induction at 15 µM / fold induction at 10 µM: U2OS;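 on all read-outs here: U2OS cells co-transfected with a TCF-tk luciferase reporter, a Wnt vector, hSFRP-1 or empty vector and CMV-βgal, luciferase luminescence read in cell lysates alongside βgal activity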
[3] = read-out: Fold Induction with SFRP-1, Conc 15 μM, with SFRP-1, fold induction over SFRP-1 control, single dose
[4] = read-out: Fold Induction without SFRP-1, Conc 15 μM, without SFRP-1, single dose
[5] = read-out: Fold Induction with SFRP-1, U2OS cells, single dose 10 μM, luciferase reporter, fold induction over SFRP-1 control
[6] = read-out: Fold Induction with SFRP-1, Conc 15 μM, single dose, luciferase reporter, fold induction over SFRP-1 control, cells with SFRP-1
[7] = read-out: Fold Induction without SFRP-1, Conc 15 μM, single dose, luciferase reporter, cells without SFRP-1 (specificity control)
[8] = read-out: Fold Induction with SFRP-1

| Structure (SMILES) | IC50 [1] | EC50 [2] | fold induction at 10 µM [2, 5] | also measured |
| --- | --- | --- | --- | --- |
| COc1cccc(S(=O)(=O)c2ccc(C(C)C)c(S(=O)(=O)NCCc3ccccn3)c2)c1 [Example 456, 2-isopropyl-5-[(3-methoxyphenyl)sulfonyl]-N-(2-pyridin-2-ylethyl)benzenesulfonamide] | 800 nM |  |  | fold induction at 15 µM [2, 3]: 3.6; fold induction at 15 µM [2, 4]: 1 |
| CNC(=O)CN1CCC(NS(=O)(=O)c2cc(S(=O)(=O)c3ccccc3)ccc2C(F)(F)F)CC1 [Example 1083, N-methyl-2-[4-({[5-(phenylsulfonyl)-2-(trifluoromethyl)phenyl]sulfonyl}amino)piperidin-1-yl]acetamide] | 150 nM | 366 nM |  |  |
| COC(=O)CNC(=S)N1CCC(NS(=O)(=O)c2cc(S(=O)(=O)c3ccc(F)cc3)ccc2C(C)C)CC1 [Example 697, methyl N-({4-[({5-[(4-fluorophenyl)sulfonyl]-2-isopropylphenyl}sulfonyl)amino]piperidin-1-yl}carbonothioyl)glycinate] | 400 nM | 452 nM | 3.7 |  |
| O=S(=O)(NCCCN1CCOCC1)c1cc(S(=O)(=O)c2ccccc2)ccc1C(F)(F)F [Example 767, N-(3-morpholin-4-ylpropyl)-5-(phenylsulfonyl)-2-(trifluoromethyl)benzenesulfonamide] | 900 nM |  | 3.6 |  |
| CN(C)c1ccccc1S(=O)(=O)c1ccc(C(F)(F)F)c(S(=O)(=O)NC2CCNCC2)c1 [Example 862, 5-{[2-(dimethylamino)phenyl]sulfonyl}-N-piperidin-4-yl-2-(trifluoromethyl)benzenesulfonamide] | 1300 nM |  | 4 |  |
| Nc1ccc(CCNS(=O)(=O)c2cc(S(=O)(=O)c3ccccc3)ccc2C(F)(F)F)cc1 [Example 928, N-[2-(4-aminophenyl)ethyl]-5-(phenylsulfonyl)-2-(trifluoromethyl)benzenesulfonamide] | 180 nM | 380 nM | 3.9 |  |
| O=C(c1ccc(Cl)c(Cl)c1)N1CCC(NS(=O)(=O)c2cc(S(=O)(=O)c3ccccc3)ccc2C(F)(F)F)CC1 [Example 712, N-[1-(3,4-dichlorobenzoyl)piperidin-4-yl]-5-(phenylsulfonyl)-2-(trifluoromethyl)benzenesulfonamide] | 500 nM |  | 2.9 |  |
| CC(C)c1ccc(S(=O)(=O)c2ccccc2)cc1S(=O)(=O)NCCc1ccccn1 [Example 671, 2-isopropyl-5-(phenylsulfonyl)-N-(2-pyridin-2-ylethyl)benzenesulfonamide] | 400 nM | 1580 nM | 3.6 |  |
| O=S(=O)(NC1CCN(CCN2CCOCC2)CC1)c1cc(S(=O)(=O)c2ccccc2)ccc1C(F)(F)F [Example 1019, N-[1-(2-morpholin-4-ylethyl)piperidin-4-yl]-5-(phenylsulfonyl)-2-(trifluoromethyl)benzenesulfonamide] | 290 nM | 898 nM |  |  |
| Cc1ccc(S(=O)(=O)c2ccc(C(C)(C)C)cc2)cc1S(=O)(=O)NCCCn1ccnc1 [Example 439, 5-[(4-tert-butylphenyl)sulfonyl]-N-[3-(1H-imidazol-1-yl)propyl]-2-methylbenzenesulfonamide] | 2000 nM |  |  | fold induction at 15 µM [2, 3]: 2; fold induction at 15 µM [2, 4]: 0.9 |
| CNc1ccc(S(=O)(=O)c2ccc(C(C)C)c(S(=O)(=O)NCCC3CCOCC3)c2)cc1 [Example 359, 2-isopropyl-5-{[4-(methylamino)phenyl]sulfonyl}-N-[2-(tetrahydro-2H-pyran-4-yl)ethyl]benzenesulfonamide] | 800 nM |  |  | fold induction at 15 µM [2, 3]: 2.7; fold induction at 15 µM [2, 4]: 0.9 |
| CC(C)c1ccc(S(=O)(=O)c2ccccc2)cc1S(=O)(=O)NCCCn1ccnc1 [Example 296, N-[3-(1H-imidazol-1-yl)propyl]-2-isopropyl-5-(phenylsulfonyl)benzenesulfonamide] | 200 nM |  |  | fold induction at 15 µM [2, 3]: 3.3; fold induction at 15 µM [2, 4]: 1.4 |
| O=S(=O)(NCc1ccc(N2CCOCC2)nc1)c1cc(S(=O)(=O)c2ccccc2)ccc1C(F)(F)F [Example 1033, N-[(6-morpholin-4-ylpyridin-3-yl)methyl]-5-(phenylsulfonyl)-2-(trifluoromethyl)benzenesulfonamide] | 500 nM | 1520 nM |  |  |
| CC(C)c1ccc(S(=O)(=O)c2ccc(NCCC#N)cc2)cc1S(=O)(=O)NCCC1CCOCC1 [Example 537, 5-({4-[(2-cyanoethyl)amino]phenyl}sulfonyl)-2-isopropyl-N-[2-(tetrahydro-2H-pyran-4-yl)ethyl]benzenesulfonamide] | 700 nM |  |  | fold induction at 15 µM [2, 6]: 2.9; fold induction at 15 µM [2, 7]: 1.1 |
| Cc1ccc(S(=O)(=O)c2ccccc2)cc1S(=O)(=O)NC1CCN(C(=O)N(C)C)CC1 [Example 503, N,N-dimethyl-4-({[2-methyl-5-(phenylsulfonyl)phenyl]sulfonyl}amino)piperidine-1-carboxamide] | 2400 nM |  |  | fold induction at 15 µM [2, 6]: 2.7; fold induction at 15 µM [2, 7]: 0.9 |
| CC(C)c1ccc(S(=O)(=O)c2ccc(F)cc2)cc1S(=O)(=O)NCCC#N [Example 664, N-(2-cyanoethyl)-5-[(4-fluorophenyl)sulfonyl]-2-isopropylbenzenesulfonamide] | 1700 nM | 2990 nM | 3.9 |  |
| CN(CCNS(=O)(=O)c1cc(S(=O)(=O)c2ccccc2)ccc1C(F)(F)F)C(=O)Oc1ccc(F)cc1 [Example 872, 4-fluorophenyl methyl[2-({[5-(phenylsulfonyl)-2-(trifluoromethyl)phenyl]sulfonyl]amino)ethyl]carbamate] | 600 nM | 1950 nM |  | fold induction at 10 µM [2, 8]: 3.1 |
| CC(C)(C)C(=O)N1CCC(NS(=O)(=O)c2cc(S(=O)(=O)c3ccccc3)ccc2Cl)CC1 [Example 648, 2-chloro-N-[1-(2,2-dimethylpropanoyl)piperidin-4-yl]-5-(phenylsulfonyl)benzenesulfonamide] | 5000 nM |  |  | fold induction at 15 µM [2, 6]: 2.9; fold induction at 15 µM [2, 7]: 1.1 |
| CCc1ccc(S(=O)(=O)c2ccc(C)c(S(=O)(=O)NCCc3ccccn3)c2)cc1 [Example 418, 5-[(4-ethylphenyl)sulfonyl]-2-methyl-N-(2-pyridin-2-ylethyl)benzenesulfonamide] | 1300 nM |  |  | fold induction at 15 µM [2, 3]: 2.3; fold induction at 15 µM [2, 4]: 1.2 |
| CN(CCNS(=O)(=O)c1cc(S(=O)(=O)c2ccccc2)ccc1C(F)(F)F)C(=O)Oc1cccc(C(F)(F)F)c1 [Example 871, 3-(trifluoromethyl)phenyl methyl[2-({[5-(phenylsulfonyl)-2-(trifluoromethyl)phenyl]sulfonyl}amino)ethyl]carbamate] | 600 nM | 3810 nM |  | fold induction at 10 µM [2, 8]: 2 |
| O=S(=O)(NC1Cc2ccccc2C1O)c1cc(S(=O)(=O)c2ccccc2)ccc1C(F)(F)F (stereo not drawn) [Example 900, N-(1-hydroxy-2,3-dihydro-1H-inden-2-yl)-5-(phenylsulfonyl)-2-(trifluoromethyl)benzenesulfonamide] | 80 nM |  | 4.1 |  |
| O=S(=O)(NC1CCN(Cc2ccc(C(F)(F)F)cc2)CC1)c1cc(S(=O)(=O)c2ccccc2)ccc1C(F)(F)F [Example 749, 5-(phenylsulfonyl)-2-(trifluoromethyl)-N-{1-[4-(trifluoromethyl)benzyl]piperidin-4-yl}benzenesulfonamide] | 3000 nM |  | 1.7 |  |
| Cc1cccc(S(=O)(=O)c2ccc(Cl)c(S(=O)(=O)NC3CCOCC3)c2)c1 [Example 604, 2-chloro-5-[(3-methylphenyl)sulfonyl]-N-(tetrahydro-2H-pyran-4-yl)benzenesulfonamide] | 7000 nM |  |  | fold induction at 15 µM [2, 6]: 2.2; fold induction at 15 µM [2, 7]: 1.1 |
| O=S(=O)(N[C@H](CO)Cc1c[nH]c2ccccc12)c1cc(S(=O)(=O)c2ccccc2)ccc1C(F)(F)F [Example 721, N-[(1S)-2-hydroxy-1-(1H-indol-3-ylmethyl)ethyl]-5-(phenylsulfonyl)-2-(trifluoromethyl)benzenesulfonamide] | 2000 nM |  | 2.7 |  |
| CCc1nccn1CCNS(=O)(=O)c1cc(S(=O)(=O)c2ccc(F)cc2)ccc1C(C)C [Example 584, N-[2-(2-ethyl-1H-imidazol-1-yl)ethyl]-5-[(4-fluorophenyl)sulfonyl]-2-isopropylbenzenesulfonamide] | 500 nM |  |  | fold induction at 15 µM [2, 6]: 3.4; fold induction at 15 µM [2, 7]: 1.1 |
| Cc1ccc(S(=O)(=O)c2ccc(NCCC#N)cc2)cc1S(=O)(=O)NCCCn1ccnc1 [Example 353, 5-({4-[(2-cyanoethyl)amino]phenyl}sulfonyl)-N-[3-(1H-imidazol-1-yl)propyl]-2-methylbenzenesulfonamide] | 300 nM |  |  | fold induction at 15 µM [2, 3]: 3.3; fold induction at 15 µM [2, 4]: 1.1 |
| CN(CCNS(=O)(=O)c1cc(S(=O)(=O)c2ccccc2)ccc1C(F)(F)F)C(=O)N(C)c1ccccc1 [Example 836, N-[2-(methyl{[methyl(phenyl)amino]carbonyl}amino)ethyl]-5-(phenylsulfonyl)-2-(trifluoromethyl)benzenesulfonamide] | 210 nM | 1990 nM | 2.8 |  |
